Reference: patent publication US9486506B2 (Novo Nordisk A/S, priority 2011, dated 2016)
pEC50: −log10 of the molar value. Numbered stars: 1 amine (or outer) side, 2 acyl side, 3 side chain; on linkers, the order of the positions; unused ones are H or OH. Side chains are listed from the residue outwards. Peptide text beside a SMILES is read from it. * marks the point of attachment. C18 diacid = O=C(O)CCCCCCCCCCCCCCCCC(=O)*; γGlu = O=C(O)[C@H](CCC(=O)[*:2])N[*:1]; AEEA = NCCOCCOCC(=O)O

Columns and labels:
[1] = Assay (X) Chemical stability assessment by RP-UPLC; format: physicochemical; settings: pH 8.15, 14 days at 37° C. vs 5° C., 333 μM
glucagon receptor = biological target: T1, glucagon receptor (Homo sapiens, UniProt P47871); assay: Assay (I) Glucagon activity (cAMP biosensor, FLIPR); format: cell-based
T1 construct: expressed in transfected cells
T1 sequence (P47871 26-477): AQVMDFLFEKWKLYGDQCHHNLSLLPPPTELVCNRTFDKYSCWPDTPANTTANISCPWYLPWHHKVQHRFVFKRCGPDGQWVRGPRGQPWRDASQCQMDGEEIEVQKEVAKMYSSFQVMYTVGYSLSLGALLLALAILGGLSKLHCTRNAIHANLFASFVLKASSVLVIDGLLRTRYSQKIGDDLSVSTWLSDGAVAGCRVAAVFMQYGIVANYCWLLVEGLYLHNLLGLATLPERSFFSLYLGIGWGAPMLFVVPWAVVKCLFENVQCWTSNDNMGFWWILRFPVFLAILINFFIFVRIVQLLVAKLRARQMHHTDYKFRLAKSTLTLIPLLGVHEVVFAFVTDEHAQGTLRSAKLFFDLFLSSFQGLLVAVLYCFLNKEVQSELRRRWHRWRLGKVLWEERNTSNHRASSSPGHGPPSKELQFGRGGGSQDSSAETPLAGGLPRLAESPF

SMILES	Chemical stability [Purity loss/14 days 37 C.] [1]	pEC50 (glucagon receptor)
CC[C@H](C)[C@H](NC(=O)[C@H](CC(=O)O)NC(=O)[C@H](CC(C)C)NC(=O)[C@H](Cc1ccc(O)cc1)NC(=O)[C@H](CCCNC(=N)N)NC(=O)[C@H](CO)NC(=O)[C@H](Cc1ccc(O)cc1)NC(=O)[C@H](CC(=O)O)NC(=O)[C@H](CO)NC(=O)[C@@H](NC(=O)[C@H](Cc1ccccc1)NC(=O)[C@@H](NC(=O)CNC(=O)[C@H](CCC(N)=O)NC(=O)[C@H](CO)NC(=O)[C@@H](N)Cc1c[nH]cn1)[C@@H](C)O)[C@@H](C)O)C(=O)N[C@@H](CCCNC(=N)N)C(=O)N[C@@H](CCCNC(=N)N)C(=O)N[C@@H](C)C(=O)N[C@@H](CCC(N)=O)C(=O)N[C@@H](CCC(=O)O)C(=O)N[C@@H](Cc1ccccc1)C(=O)N[C@H](C(=O)N[C@@H](CCCCNC(=O)CC[C@H](NC(=O)CC[C@H](NC(=O)COCCOCCNC(=O)COCCOCCNC(=O)CC[C@H](NC(=O)CCCCCCCCCCCCCCCCC(=O)O)C(=O)O)C(=O)O)C(=O)O)C(=O)N[C@@H](Cc1c[nH]c2ccccc12)C(=O)N[C@@H](CC(C)C)C(=O)N[C@@H](CCC(=O)O)C(=O)N[C@@H](CO)C(=O)N[C@H](C(=O)O)[C@@H](C)O)C(C)C [Example 53, N^ε24-[(4S)-4-carboxy-4-[[(4S)-4-carboxy-4-[[2-[2-[2-[[2-[2-[2-[[(4S)-4-carboxy-4-(17-carboxyheptadecanoylamino)butanoyl]amino]ethoxy]ethoxy]acetyl]amino]ethoxy]ethoxy]acetyl]amino]butanoyl]amino]butanoyl]-[Arg12,Ile16,Glu21,Lys24,Glu27,Ser28]-Glucagon] (H-HSQGTFTSDYSRYLDIRRAQEFVK([γGlu-γGlu-AEEA-AEEA-γGlu-C18 diacid])WLEST-OH)	2.5%	10.00
CC(C)C[C@H](NC(=O)[C@H](Cc1ccc(O)cc1)NC(=O)[C@H](CCCCN)NC(=O)[C@H](CO)NC(=O)[C@H](Cc1ccc(O)cc1)NC(=O)[C@H](CC(=O)O)NC(=O)[C@H](CO)NC(=O)[C@@H](NC(=O)[C@H](Cc1ccccc1)NC(=O)[C@@H](NC(=O)CNC(=O)[C@H](CCC(N)=O)NC(=O)[C@H](CO)NC(=O)[C@@H](N)Cc1c[nH]cn1)[C@@H](C)O)[C@@H](C)O)C(=O)N[C@@H](CC(=O)O)C(=O)N[C@@H](C)C(=O)N[C@@H](CCCNC(=N)N)C(=O)N[C@@H](CCCNC(=N)N)C(=O)N[C@@H](C)C(=O)N[C@@H](CCC(N)=O)C(=O)N[C@@H](CC(=O)O)C(=O)N[C@@H](Cc1ccccc1)C(=O)N[C@H](C(=O)N[C@@H](CCCCNC(=O)CC[C@H](NC(=O)CC[C@H](NC(=O)COCCOCCNC(=O)COCCOCCNC(=O)CC[C@H](NC(=O)CCCCCCCCCCCCCCCCC(=O)O)C(=O)O)C(=O)O)C(=O)O)C(=O)N[C@@H](Cc1c[nH]c2ccccc12)C(=O)N[C@@H](CC(C)C)C(=O)N[C@@H](CC(C)C)C(=O)N[C@@H](CCC(N)=O)C(=O)N[C@H](C(=O)O)[C@@H](C)O)C(C)C [Example 56, N^ε24-[(4S)-4-carboxy-4-[[(4S)-4-carboxy-4-[[2-[2-[2-[[2-[2-[2-[[(4S)-4-carboxy-4-(17-carboxyheptadecanoylamino)butanoyl]amino]ethoxy]ethoxy]acetyl]amino]ethoxy]ethoxy]acetyl]amino]butanoyl]amino]butanoyl]-[Ala16,Lys24,Leu27,Gln28]-Glucagon]	8.1%	9.72
CC(C)C[C@H](NC(=O)[C@H](Cc1ccc(O)cc1)NC(=O)[C@H](CCCCN)NC(=O)[C@H](CO)NC(=O)[C@H](Cc1ccc(O)cc1)NC(=O)[C@H](CC(=O)O)NC(=O)[C@H](CO)NC(=O)[C@@H](NC(=O)[C@H](Cc1ccccc1)NC(=O)[C@@H](NC(=O)CNC(=O)[C@H](CCC(N)=O)NC(=O)[C@H](CO)NC(=O)[C@@H](N)Cc1c[nH]cn1)[C@@H](C)O)[C@@H](C)O)C(=O)N[C@@H](CC(=O)O)C(=O)N[C@@H](C)C(=O)N[C@@H](CCCNC(=N)N)C(=O)N[C@@H](CCCNC(=N)N)C(=O)N[C@@H](C)C(=O)N[C@@H](CCC(N)=O)C(=O)N[C@@H](CC(=O)O)C(=O)N[C@@H](Cc1ccccc1)C(=O)N[C@H](C(=O)N[C@@H](CCCCNC(=O)CC[C@H](NC(=O)CC[C@H](NC(=O)COCCOCCNC(=O)COCCOCCNC(=O)CC[C@H](NC(=O)CCCCCCCCCCCCCCCCC(=O)O)C(=O)O)C(=O)O)C(=O)O)C(=O)N[C@@H](Cc1c[nH]c2ccccc12)C(=O)N[C@@H](CC(C)C)C(=O)N[C@@H](CCC(=O)O)C(=O)N[C@@H](CO)C(=O)N[C@H](C(=O)O)[C@@H](C)O)C(C)C [Example 57, N^ε24-[(4S)-4-carboxy-4-[[(4S)-4-carboxy-4-[[2-[2-[2-[[2-[2-[2-[[(4S)-4-carboxy-4-(17-carboxyheptadecanoylamino)butanoyl]amino]ethoxy]ethoxy]acetyl]amino]ethoxy]ethoxy]acetyl]amino]butanoyl]amino]butanoyl]-[Ala16,Lys24,Glu27,Ser28]-Glucagon]	7.9%	10.15
CC(C)C[C@H](NC(=O)[C@H](Cc1ccc(O)cc1)NC(=O)[C@H](CCCCN)NC(=O)[C@H](CO)NC(=O)[C@H](Cc1ccc(O)cc1)NC(=O)[C@H](CC(=O)O)NC(=O)[C@H](CO)NC(=O)[C@@H](NC(=O)[C@H](Cc1ccccc1)NC(=O)[C@@H](NC(=O)CNC(=O)[C@H](CCC(N)=O)NC(=O)[C@H](CO)NC(=O)[C@@H](N)Cc1c[nH]cn1)[C@@H](C)O)[C@@H](C)O)C(=O)N[C@@H](CCC(=O)O)C(=O)N[C@@H](CO)C(=O)N[C@@H](CCCNC(=N)N)C(=O)N[C@@H](CCCNC(=N)N)C(=O)N[C@@H](C)C(=O)N[C@@H](CCC(N)=O)C(=O)N[C@@H](CC(=O)O)C(=O)N[C@@H](Cc1ccccc1)C(=O)N[C@H](C(=O)N[C@@H](CCCCNC(=O)CC[C@H](NC(=O)CC[C@H](NC(=O)COCCOCCNC(=O)COCCOCCNC(=O)CC[C@H](NC(=O)CCCCCCCCCCCCCCCCC(=O)O)C(=O)O)C(=O)O)C(=O)O)C(=O)N[C@@H](Cc1c[nH]c2ccccc12)C(=O)N[C@@H](CC(C)C)C(=O)N[C@@H](CC(C)C)C(=O)N[C@@H](CO)C(=O)N[C@H](C(N)=O)[C@@H](C)O)C(C)C [Example 58, N^ε24-[(4S)-4-carboxy-4-[[(4S)-4-carboxy-4-[[2-[2-[2-[[2-[2-[2-[[(4S)-4-carboxy-4-(17-carboxyheptadecanoylamino)butanoyl]amino]ethoxy]ethoxy]acetyl]amino]ethoxy]ethoxy]acetyl]amino]butanoyl]amino]butanoyl]-[Glu15,Lys24,Leu27,Ser28]-Glucagon amide]	7.3%	9.87
CC(C)C[C@H](NC(=O)[C@H](Cc1c[nH]c2ccccc12)NC(=O)[C@H](CCCCNC(=O)CC[C@H](NC(=O)COCCOCCNC(=O)COCCOCCNC(=O)CC[C@H](NC(=O)CC[C@H](NC(=O)CCCCCCCCCCCCCCCCC(=O)O)C(=O)O)C(=O)O)C(=O)O)NC(=O)[C@@H](NC(=O)[C@H](Cc1ccccc1)NC(=O)[C@H](CCC(=O)O)NC(=O)[C@H](CCC(N)=O)NC(=O)[C@H](C)NC(=O)[C@H](CCCNC(=N)N)NC(=O)[C@H](CCCNC(=N)N)NC(=O)[C@@H](NC(=O)[C@H](CC(=O)O)NC(=O)[C@H](CC(C)C)NC(=O)[C@H](Cc1ccc(O)cc1)NC(=O)[C@H](CCCCN)NC(=O)[C@H](CO)NC(=O)[C@@H](NC(=O)[C@H](CC(=O)O)NC(=O)[C@H](CO)NC(=O)[C@@H](NC(=O)[C@H](Cc1ccccc1)NC(=O)[C@@H](NC(=O)CNC(=O)[C@H](CCC(N)=O)NC(=O)[C@H](CO)NC(=O)[C@@H](N)Cc1c[nH]cn1)[C@@H](C)O)[C@@H](C)O)C(C)C)[C@@H](C)O)C(C)C)C(=O)N[C@@H](CC(C)C)C(=O)N[C@@H](CO)C(=O)N[C@H](C(N)=O)[C@@H](C)O [Example 61, N^ε24-[(4S)-4-carboxy-4-[[2-[2-[2-[[2-[2-[2-[[(4S)-4-carboxy-4-[[(4S)-4-carboxy-4-(17-carboxyheptadecanoylamino)butanoyl]amino]butanoyl]amino]ethoxy]ethoxy]acetyl]amino]ethoxy]ethoxy]acetyl]amino]butanoyl]-[Val10,Thr16,Glu21,Lys24,Leu27,Ser28]-Glucagon amide] (H-HSQGTFTSDVSKYLDTRRAQEFVK([γGlu-AEEA-AEEA-γGlu-γGlu-C18 diacid])WLLST-NH2)	6.2%	9.81
CC(C)C[C@H](NC(=O)[C@H](Cc1c[nH]c2ccccc12)NC(=O)[C@H](CCCCNC(=O)COCCOCCNC(=O)COCCOCCNC(=O)CC[C@H](NC(=O)CC[C@H](NC(=O)CC[C@H](NC(=O)CCCCCCCCCCCCCCCCC(=O)O)C(=O)O)C(=O)O)C(=O)O)NC(=O)[C@@H](NC(=O)[C@H](Cc1ccccc1)NC(=O)[C@H](CCC(=O)O)NC(=O)[C@H](CCC(N)=O)NC(=O)[C@H](C)NC(=O)[C@H](CCCNC(=N)N)NC(=O)[C@H](CCCNC(=N)N)NC(=O)[C@@H](NC(=O)[C@H](CC(=O)O)NC(=O)[C@H](CC(C)C)NC(=O)[C@H](Cc1ccc(O)cc1)NC(=O)[C@H](CCCCN)NC(=O)[C@H](CO)NC(=O)[C@@H](NC(=O)[C@H](CC(=O)O)NC(=O)[C@H](CO)NC(=O)[C@@H](NC(=O)[C@H](Cc1ccccc1)NC(=O)[C@@H](NC(=O)CNC(=O)[C@H](CCC(N)=O)NC(=O)[C@H](CO)NC(=O)[C@@H](N)Cc1c[nH]cn1)[C@@H](C)O)[C@@H](C)O)C(C)C)[C@@H](C)O)C(C)C)C(=O)N[C@@H](CC(C)C)C(=O)N[C@@H](CO)C(=O)N[C@H](C(=O)O)[C@@H](C)O [Example 62, N^ε24-[2-[2-[2-[[2-[2-[2-[[(4S)-4-carboxy-4-[[(4S)-4-carboxy-4-[[(4S)-4-carboxy-4-(17-carboxyheptadecanoylamino)butanoyl]amino]butanoyl]amino]butanoyl]amino]ethoxy]ethoxy]acetyl]amino]ethoxy]ethoxy]acetyl]-[Val10,Thr16,Glu21,Lys24,Leu27,Ser28]-Glucagon] (H-HSQGTFTSDVSKYLDTRRAQEFVK([AEEA-AEEA-γGlu-γGlu-γGlu-C18 diacid])WLLST-OH)	5.6%	10.10
